Experimental data from US20090291964A1, “Potentiators of Antibacterial Activity” (priority 2003, published 2009).
Where two headings read alike, the source gives them in different places.

Tests used:
Format in all cases: cell-based
S. aureus ATCC 29213 = test: MIC by NCCLS microdilution, antibacterial agents with and without EPI; details: for MIC: Staphylococcus aureus; for MIC in the presence of 4X MEC of EPI, VX-710: VX-710 100 μg/ml; for MIC in the presence of 4X MEC of EPI, VX-853: VX-853 6.25 μg/ml; for MIC in the presence of 4X MEC of EPI, reserpine: reserpine 25 μg/ml
Protocol: 3% sterile laked horse blood (Quad Five, Ryegate, Mont.) was added to assays for E. faecalis and S. Pneumoniae. A final concentration of 1% DMSO was present in all assays. […]
A-106 and C-9 were tested at their respective MECs in combination with a variety of different classes of antibiotics against S. aureus ATCC 29213 (Table 2).

[1] = tested on: E. faecalis clinical isolates; test: MIC90 studies: fluoroquinolone susceptibility of clinical isolate panel with EPI; details: Enterococcus faecalis
Protocol: (§1) Susceptibility studies with large panels of resistant clinical isolates were performed at Focus Technologies, Herndon, Va. according to NCCLS protocols (National Committee for Clinical Laboratory Standards, supra).
(§2) To be useful in combination therapy, an EPI needs to substantially reduce the MIC of an antibiotic to within the range of clinical susceptibility. Because many different resistance mechanisms are often present in clinical isolates, including the likelihood of multiple target-based mutations in addition to efflux mutations, the barrier to antibiotic efficacy is much greater. […] Oxacillin and vancomycin MICs were also determined to identify which isolates were methicillin-resistant (S. aureus) and vancomycin-resistant (E. faecalis).

[2] = tested on: S. aureus clinical isolates; test: as above; details: Staphylococcus aureus
Protocol: as §1, §2

[3] = tested on: S. aureus SA-1199B (NorA overproducing); test: MIC of fluoroquinolones with and without EPI; details: S. aureus SA-1199B (NorA overproducer, GrlA A116E); no EPI
Text: (§3) A variety of strains may be used in these experiments, including, but not limited to, S. aureus ATCC 29213, E. faecalis ATCC 29212, and S. pneumoniae, S. aureus strains SA-1199, SA-1199B, SA-8325-4, and SA-K2068. S. aureus ATCC 29213, E. faecalis ATCC 29212, and S. pneumoniae ATCC 10015 were obtained from the American Type Culture Collection (Manassas, Va.). S. aureus strains SA-1199 (clinical isolate, susceptible), SA-1199B (SA-1199, NorA overproducing, also has A116E GrlA mutation), SA-8325-4 (NCTC 8325 cured of prophages), SA-K2068 (SA-8325-4, non-NorA multidrug efflux pump overproducing mutation) were obtained from Glenn Kaatz (Kaatz et al., “Identification and characterization of a novel efflux-related multidrug resistance phenotype in Staphylococcus aureus”, J. Antimicrob. Chemother. 50:833-838 (2002); 1993; Kaatz et al., “Phenothiazines and thioxanthenes inhibit multidrug efflux pump activity in Staphylococcus aureus”, Antimicrob. Agents Chemother. 47:719-726, Kaatz et al., “Efflux-mediated fluoroquinolone resistance in Staphylococcus aureus. Antimicrob. Agents Chemother.”, 37:1086-1094, 1993)).
(§4) 3% sterile laked horse blood (Quad Five, Ryegate, Mont.) was added to assays for E. faecalis and S. Pneumoniae. A final concentration of 1% DMSO was present in all assays.
(§5) Recent more hydrophobic fluoroquinolones such as gatifloxacin and moxifloxacin are less well recognized by NorA; however, recently one other pump in S. aureus has been described which also recognizes hydrophobic fluoroquinolones (Kaatz et al. 2002, supra). To investigate the potential of A-106 and C-9 to block the efflux of several fluoroquinolones in cells with constituitively over-expressed efflux pumps, we used S. aureus strains SA-1199B and K2068 (Table 3). […] Kaatz et al., “Phenothiazines and thioxanthenes inhibit multidrug efflux pump activity in Staphylococcus aureus”, Antimicrob. Agents Chemother. 47:719-726 (2003).

[4] = tested on: S. aureus SA-K2068 (non-NorA multidrug efflux pump overproducing); test: microbe, parasite or virus in culture; details: S. aureus K2068 (non-NorA MDR pump overproducer); no EPI
Text: as §3, §4, §5

[5] = tested on: S. aureus SA-1199 (clinical isolate, susceptible); test: MIC of fluoroquinolones with and without EPI
Text: as §3, §4

S. aureus SA-8325-4 = test: MIC of fluoroquinolones with and without EPI; details: Staphylococcus aureus, SA83254, read-out: MIC of antibacterial agent, EPI none
Text: as §3, §4

[6] = ATCC29213, antibacterial agent alone, read-out: MIC, No EPI

[Br-].c1ccc([P+](c2ccccc2)(c2ccccc2)c2ccccc2)cc1 [tetraphenylphosphonium bromide]
16 µg/mL: MIC (S. aureus ATCC 29213; ATCC29213, read-out: MIC, No EPI, antibacterial agent alone)
4 µg/mL: MIC in the presence of 4X MEC of EPI, VX-710 (S. aureus ATCC 29213)
8 µg/mL: MIC in the presence of 4X MEC of EPI, VX-853 (S. aureus ATCC 29213) | MIC in the presence of 4X MEC of EPI, reserpine (S. aureus ATCC 29213)

CN[C@H](CC(C)C)C(=O)N[C@H]1C(=O)N[C@@H](CC(N)=O)C(=O)N[C@H]2C(=O)N[C@H]3C(=O)N[C@H](C(=O)N[C@H](C(=O)O)c4cc(O)cc(O)c4-c4cc3ccc4O)[C@H](O)c3ccc(c(Cl)c3)Oc3cc2cc(c3O[C@@H]2O[C@H](CO)[C@@H](O)[C@H](O)[C@H]2O[C@H]2C[C@](C)(N)[C@H](O)[C@H](C)O2)Oc2ccc(cc2Cl)[C@H]1O [Vancomycin]
16 µg/mL: MIC ([1]; read-out: MIC, No EPI, E. faecalis clinical isolate 11)
0.5 µg/mL: MIC ([1]; read-out: MIC, No EPI, E. faecalis clinical isolate 16)
4 µg/mL: MIC ([1]; read-out: MIC, No EPI, E. faecalis clinical isolate 2) | MIC ([1]; read-out: MIC, No EPI, E. faecalis clinical isolate 12) | MIC ([1]; read-out: MIC, No EPI, E. faecalis clinical isolate 15) | MIC ([1]; read-out: MIC, No EPI, E. faecalis clinical isolate 17)
128 µg/mL: MIC ([1]; read-out: MIC, No EPI, E. faecalis clinical isolate 8)
> 256 µg/mL: MIC ([1]; read-out: MIC, No EPI, E. faecalis clinical isolate 3) | MIC ([1]; read-out: MIC, No EPI, E. faecalis clinical isolate 18) | MIC ([1]; read-out: MIC, No EPI, E. faecalis clinical isolate 26)
1 µg/mL: MIC ([1]; read-out: MIC, No EPI, E. faecalis clinical isolate 1) | MIC ([1]; read-out: MIC, No EPI, E. faecalis clinical isolate 4) | MIC ([1]; read-out: MIC, No EPI, E. faecalis clinical isolate 7) | MIC ([1]; read-out: MIC, No EPI, E. faecalis clinical isolate 9) | MIC ([1]; read-out: MIC, No EPI, E. faecalis clinical isolate 14) | MIC ([1]; read-out: MIC, No EPI, E. faecalis clinical isolate 21) | MIC ([1]; read-out: MIC, No EPI, E. faecalis clinical isolate 22) | MIC ([1]; read-out: MIC, No EPI, E. faecalis clinical isolate 24) | MIC ([1]; read-out: MIC, No EPI, E. faecalis clinical isolate 25)
2 µg/mL: MIC ([1]; read-out: MIC, No EPI, E. faecalis clinical isolate 5) | MIC ([1]; read-out: MIC, No EPI, E. faecalis clinical isolate 6) | MIC ([1]; read-out: MIC, No EPI, E. faecalis clinical isolate 10) | MIC ([1]; read-out: MIC, No EPI, E. faecalis clinical isolate 13) | MIC ([1]; read-out: MIC, No EPI, E. faecalis clinical isolate 19) | MIC ([1]; read-out: MIC, No EPI, E. faecalis clinical isolate 20) | MIC ([1]; read-out: MIC, No EPI, E. faecalis clinical isolate 23)

CC[C@H]1OC(=O)[C@H](C)[C@@H](O[C@H]2C[C@@](C)(OC)[C@@H](O)[C@H](C)O2)[C@H](C)[C@@H](O[C@@H]2O[C@H](C)C[C@H](N(C)C)[C@H]2O)[C@](C)(O)C[C@@H](C)CN(C)[C@H](C)[C@@H](O)[C@]1(C)O [azithromycin]
1 µg/mL: MIC (S. aureus ATCC 29213; [6]) | MIC in the presence of 4X MEC of EPI, VX-710 (S. aureus ATCC 29213) | MIC in the presence of 4X MEC of EPI, VX-853 (S. aureus ATCC 29213) | MIC in the presence of 4X MEC of EPI, reserpine (S. aureus ATCC 29213)

CO/N=C(\C(=O)N[C@@H]1C(=O)N2C(C(=O)O)=C(CSc3nc(=O)c(=O)[nH]n3C)CS[C@H]12)c1csc(N)n1 [ceftriaxone]
4 µg/mL: MIC (S. aureus ATCC 29213; [6]) | MIC in the presence of 4X MEC of EPI, VX-710 (S. aureus ATCC 29213) | MIC in the presence of 4X MEC of EPI, VX-853 (S. aureus ATCC 29213) | MIC in the presence of 4X MEC of EPI, reserpine (S. aureus ATCC 29213)

CC[C@H]1OC(=O)[C@H](C)[C@@H](O[C@H]2C[C@@](C)(OC)[C@@H](O)[C@H](C)O2)[C@H](C)[C@@H](O[C@@H]2O[C@H](C)C[C@H](N(C)C)[C@H]2O)[C@](C)(O)C[C@@H](C)C(=O)[C@H](C)[C@@H](O)[C@]1(C)O [erythromycin]
0.25 µg/mL: MIC (S. aureus ATCC 29213; [6]) | MIC in the presence of 4X MEC of EPI, VX-710 (S. aureus ATCC 29213) | MIC in the presence of 4X MEC of EPI, VX-853 (S. aureus ATCC 29213) | MIC in the presence of 4X MEC of EPI, reserpine (S. aureus ATCC 29213)

O=C(N[C@H](CO)[C@H](O)c1ccc([N+](=O)[O-])cc1)C(Cl)Cl [chloramphenicol]
8 µg/mL: MIC (S. aureus ATCC 29213; [6]) | MIC in the presence of 4X MEC of EPI, VX-710 (S. aureus ATCC 29213) | MIC in the presence of 4X MEC of EPI, VX-853 (S. aureus ATCC 29213) | MIC in the presence of 4X MEC of EPI, reserpine (S. aureus ATCC 29213)

Cc1onc(-c2ccccc2)c1C(=O)N[C@@H]1C(=O)N2[C@@H]1SC(C)(C)[C@@H]2C(=O)O [Oxacillin]
> 64 µg/mL: MIC ([2]; S. aureus clinical isolate 2) | MIC ([2]; S. aureus clinical isolate 4) | MIC ([2]; S. aureus clinical isolate 10) | MIC ([2]; S. aureus clinical isolate 11) | MIC ([2]; S. aureus clinical isolate 13) | MIC ([2]; S. aureus clinical isolate 14) | MIC ([2]; S. aureus clinical isolate 15)
2 µg/mL: MIC ([2]; S. aureus clinical isolate 5) | MIC ([2]; S. aureus clinical isolate 7) | MIC ([2]; S. aureus clinical isolate 9) | MIC ([2]; S. aureus clinical isolate 12)
16 µg/mL: MIC ([2]; S. aureus clinical isolate 1) | MIC ([2]; S. aureus clinical isolate 6)
32 µg/mL: MIC ([2]; S. aureus clinical isolate 3)
4 µg/mL: MIC ([2]; S. aureus clinical isolate 8)

gentamicin [reference compound]
0.063 µg/mL: MIC of antibacterial agent, EPI none [4]
0.5 µg/mL: MIC of antibacterial agent, EPI none (S. aureus ATCC 29213; S. aureus ATCC 29213, no EPI) | MIC, No EPI (S. aureus ATCC 29213; antibacterial agent alone) | MIC of antibacterial agent, EPI none [3] | MIC of antibacterial agent, EPI none ([5]; S. aureus SA-1199, no EPI)
0.25 µg/mL: MIC in the presence of 4X MEC of EPI, VX-853 (S. aureus ATCC 29213)

CC(=O)NC[C@H]1CN(c2ccc(N3CCOCC3)c(F)c2)C(=O)O1 [linezolid]
4 µg/mL: MIC (S. aureus ATCC 29213; [6]) | MIC in the presence of 4X MEC of EPI, VX-710 (S. aureus ATCC 29213) | MIC in the presence of 4X MEC of EPI, VX-853 (S. aureus ATCC 29213) | MIC in the presence of 4X MEC of EPI, reserpine (S. aureus ATCC 29213)

CO[C@@H]1[C@@H](OC(N)=O)[C@@H](O)[C@H](Oc2ccc3c(O)c(NC(=O)c4ccc(O)c(CC=C(C)C)c4)c(=O)oc3c2C)OC1(C)C [novobiocin]
0.125 µg/mL: MIC (S. aureus ATCC 29213; [6])
0.063 µg/mL: MIC in the presence of 4X MEC of EPI, VX-710 (S. aureus ATCC 29213) | MIC in the presence of 4X MEC of EPI, VX-853 (S. aureus ATCC 29213) | MIC in the presence of 4X MEC of EPI, reserpine (S. aureus ATCC 29213)

C[C@H]1COc2c(N3CCN(C)CC3)c(F)cc3c(=O)c(C(=O)O)cn1c23 [levofloxacin]
0.25 µg/mL: MIC (S. aureus ATCC 29213; [6]) | MIC (S. aureus SA-8325-4)
0.125 µg/mL: MIC in the presence of 4X MEC of EPI, VX-710 (S. aureus ATCC 29213) | MIC in the presence of 4X MEC of EPI, VX-853 (S. aureus ATCC 29213) | MIC in the presence of 4X MEC of EPI, reserpine (S. aureus ATCC 29213) | MIC ([5]; Staphylococcus aureus, read-out: MIC of antibacterial agent, EPI none)
